PMC9045277, “Quercetin Reduces the Virulence of S. aureus by Targeting ClpP to Protect Mice from MRSA-Induced Lethal Pneumonia” (Microbiology Spectrum, 2022)

Target: T1, ClpP (Staphylococcus aureus, UniProt Q2G036)
T1 construct: pET28a-clpP, purified from E. coli BL21(DE3)
Assay: biochemical
Settings: read-out: Relative inhibition rate (%)
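Also: ClpP peptidase activity measured as fluorescence (ex 360 nm, em 465 nm) from cleavage of Suc-LY-AMC substrate at 100 µM, 30 min at 32°C.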

T1 sequence (Q2G036 whole entry): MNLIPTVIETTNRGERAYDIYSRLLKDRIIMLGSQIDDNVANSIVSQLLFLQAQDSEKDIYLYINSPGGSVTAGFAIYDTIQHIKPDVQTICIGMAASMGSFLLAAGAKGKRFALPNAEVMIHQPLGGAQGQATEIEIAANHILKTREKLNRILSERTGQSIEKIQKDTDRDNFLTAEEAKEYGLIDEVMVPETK
Experimental: This property was exploited to screen the available laboratory library of small molecules for ClpP inhibitors. First, 10 μM ClpP and 64 μg/mL of the small molecule compound were added to a black opaque 96-well plate containing 100 μL of ClpP buffer (100 mM HEPES,100 mM NaCl) and incubated for 1 h at room temperature. Afterward, 100 μM Suc-LeuTyr-AMC (Cat number S1153, Sigma-Aldrich, St. Louis, MO, USA) was added to 96-well plates and incubated for 30 min at 32°C. Finally, the fluorescence values were detected by Infinite M200 (360 nm excitation/465 nm emission). […] Since the fluorescent substrate Suc-LY-AMC can be used to detect the activity of ClpP protein, we screened a library of natural products available in our laboratory.

Row | Compound | inhibition at 64 µg/mL [%]
1 | O=C1O[C@H]2[C@@H]3OC(=O)c4cc(O)c(O)c(O)c4-c4c(O)c(O)c5oc(=O)c6c(c(O)c(O)c7oc(=O)c4c5c76)-c4c(cc(O)c(O)c4O)C(=O)OC[C@H]3OC(O)[C@@H]2OC(=O)c2cc(O)c(O)c(O)c2-c2c1cc(O)c(O)c2O (mixture of isomers) [Punicalagin] | 28.3 ± 3.67
2 | COc1ccc(-c2cc(=O)c3c(O)c(OC)c(OC)cc3o2)cc1O [3',5-Dihydroxy-4',6,7-trimethoxyflavone] | 55.8 ± 2.5
3 | O=c1ccc2cc(O)c(O)cc2o1 [6,7-Dihydroxycoumarin] | 19.6 ± 3.54
4 | CC1=CC(=O)CC(C)(C)[C@@]1(O)/C=C/C(C)=C\C(=O)O [Abscisic acid] | 0.8 ± 3.42
5 | O=C1c2ccccc2C(=O)c2c1ccc(O)c2O [Alizarin] | 56.6 ± 5.28
6 | C=C1CC[C@@H]2[C@](C)(CO)[C@H](O)CC[C@@]2(C)[C@@H]1C/C=C1/C(=O)OC[C@H]1O [Andrographolide] | 15.8 ± 0.72
7 | COc1ccc(-c2cc(=O)c3c(O)cc(OC)cc3o2)cc1 [Apigenin 7,4'-dimethyl ether] | 18.4 ± 1.24
8 | O=c1cc(-c2ccc(O)cc2)oc2cc(O)cc(O)c12 [Apigenin] | 13.6 ± 0.52
9 | C[C@@H]1CC[C@H]2[C@@H](C)C(=O)O[C@@H]3O[C@@]4(C)CC[C@@H]1[C@]32OO4 [Artemisinin] | 4.9 ± 4.21
10 | CC(=O)OCC1=C[C@@H]2OC(=O)C3=CO[C@@H](O[C@@H]4O[C@H](CO)[C@@H](O)[C@H](O)[C@H]4O)[C@H]1[C@@H]32 [Asperuloside] | 17.4 ± 2.31
11 | C[C@@H]1O[C@@H](O[C@H]2C(=O)c3c(O)cc(O)cc3O[C@@H]2c2ccc(O)c(O)c2)[C@H](O)[C@H](O)[C@H]1O [Astilbin] | 9.1 ± 2.73
12 | O=c1c(O[C@@H]2O[C@H](CO)[C@@H](O)[C@H](O)[C@H]2O)c(-c2ccc(O)cc2)oc2cc(O)cc(O)c12 [Astragalin] | 51.3 ± 1.73
13 | O=c1c(O[C@@H]2O[C@@H](CO)[C@H](O)[C@H]2O)c(-c2ccc(O)c(O)c2)oc2cc(O)cc(O)c12 [Avicularin] | 46 ± 1.22
14 | CC(=O)O[C@H]1C(=O)[C@@]2(C)[C@H]([C@H](OC(=O)c3ccccc3)[C@]3(O)C[C@H](O)C(C)=C1C3(C)C)[C@]1(OC(C)=O)CO[C@@H]1C[C@@H]2O [Baccatin III] | 7.2 ± 3.26
15 | O=C(O)[C@H]1O[C@@H](Oc2cc3oc(-c4ccccc4)cc(=O)c3c(O)c2O)[C@H](O)[C@@H](O)[C@@H]1O [Baicalin] | 27.3 ± 0.55
16 | O=c1c(O[C@@H]2O[C@H](CO)[C@@H](O)[C@H](O)[C@H]2O[C@@H]2O[C@H](CO)[C@@H](O)[C@H](O)[C@H]2O)c(-c2ccc(O)c(O)c2)oc2cc(O)cc(O)c12 [Baimaside] | 25.1 ± 0.69
17 | COc1ccc(-c2oc3c(CC=C(C)C)c(O)cc(O)c3c(=O)c2O[C@@H]2O[C@@H](C)[C@H](O)[C@@H](O)[C@H]2O)cc1 [Baohuoside I] | 37.1 ± 0.59
18 | CC(C)=CCc1cc2c(cc1O)O[C@H](c1ccc(O)cc1)CC2=O [Bavachin] | 21.7 ± 1.75
19 | CC(C)(C)[C@]1(O)C[C@@H]2OC(=O)C[C@@]23C(=O)O[C@@H]2OC(=O)[C@H](O)[C@]213 [Bilobalide] | 17.4 ± 1.76
20 | COc1ccc(-c2coc3cc(O)cc(O)c3c2=O)cc1 [Biochanin A] | 28.2 ± 1.38
21 | Oc1ccc2c(c1)OC[C@]1(O)Cc3cc(O)c(O)cc3[C@H]21 [Brazilin] | 47.2 ± 2.57

Row | Compound | inhibition at 64 µg/mL [%]
22 | COC(=O)[C@@]12OC[C@]34[C@H]([C@@H](O)[C@@H]1O)[C@@]1(C)CC(=O)C(O)=C(C)[C@@H]1C[C@H]3OC(=O)[C@H](OC(C)=O)[C@@H]24 [Bruceine B] | 1.6 ± 2.71
23 | COc1ccc(-c2cc(=O)c3c(O)cc(O[C@@H]4O[C@H](CO[C@@H]5O[C@@H](C)[C@H](O)[C@@H](O)[C@H]5O)[C@@H](O)[C@H](O)[C@H]4O)cc3o2)cc1 [Buddleoside] | 46.2 ± 1.25
24 | COc1ccc(-c2coc3cc(O[C@@H]4O[C@H](CO)[C@@H](O)[C@H](O)[C@H]4O)ccc3c2=O)cc1O [Calycosin-7-glucoside] | 4.2 ± 0.84
25 | COc1ccc(-c2oc3cc(OC)c(OC)c(O)c3c(=O)c2OC)cc1O [Casticin] | 56.8 ± 1.22
26 | CCC1=C[C@@H]2CN3CCc4c([nH]c5ccccc45)[C@@](C(=O)OC)(C2)[C@@H]13 [Catharanthine] | 10.3 ± 1.62
27 | O=C(/C=C/c1ccc(O)c(O)c1)O[C@@H]1C[C@](O)(C(=O)O)C[C@@H](O)[C@H]1O [Chlorogenic acid] | 10.4 ± 1.12
28 | O=c1cc(-c2ccccc2)oc2cc(O)cc(O)c12 [Chrysin] | 49 ± 3.18
29 | COc1cc(-c2oc3cc(OC)c(OC)c(O)c3c(=O)c2OC)ccc1O [Chrysosplenetin] | 52.4 ± 0.36
30 | CC1(C)CCC2(CO)C(=C3C=CC4C5(C)CCC(OC6OC(COC7OC(CO)C(O)C(O)C7O)C(OC7OC(CO)C(O)C(O)C7O)C(O)C6O)CC5C(C)(CO)CC4(C)C3(C)CC2O)C1 (stereo not shown) [Clinodiside A] | 16 ± 2.78
31 | COc1cc(O)c2c(=O)c(O[C@@H]3O[C@H](CO)[C@@H](O)[C@H](O)[C@H]3O)c(-c3ccc(O[C@@H]4O[C@H](CO)[C@@H](O)[C@H](O)[C@H]4O)cc3)oc2c1 [Complanatuside] | 12.3 ± 0.47
32 | Nc1[nH]c(=O)nc2c1ncn2[C@@H]1O[C@H](CO)[C@@H](O)[C@H]1O [Crotonoside] | 28.1 ± 3.17
33 | O=C(/C=C/c1ccc(O)c(O)c1)O[C@H]1[C@H](O)C[C@](O)(C(=O)O)C[C@H]1O [Cryptochlorogenic acid] | 13.7 ± 3.15
34 | C[C@@H]1C(=O)O[C@H](C)[C@H]1C[C@@H](O)[C@](C)(O)[C@H]1CC[C@@]2(O)C3=CC(=O)[C@@H]4C[C@@H](O)[C@@H](O)C[C@]4(C)[C@H]3CC[C@]12C [Cyasterone] | 25.6 ± 2.65
35 | C/C=C/c1cc(OC)c2c(c1)C(C)C(c1ccc(O)c(OC)c1)O2 (stereo not shown) [Dehydrodiisoeugenol] | 5.3 ± 0.61
36 | COc1ccc([C@@H]2CC(=O)c3c(O)cc(O[C@@H]4O[C@H](CO[C@@H]5O[C@@H](C)[C@H](O)[C@@H](O)[C@H]5O)[C@@H](O)[C@H](O)[C@H]4O)cc3O2)cc1 [Didymin] | 31.2 ± 0.59
37 | COc1ccc(-c2cc(=O)c3c(O)cc(O)cc3o2)cc1O [Diosmetin] | 6.1 ± 1.68
38 | COc1ccc(-c2cc(=O)c3c(O)cc(O[C@@H]4O[C@H](CO[C@@H]5O[C@@H](C)[C@H](O)[C@@H](O)[C@H]5O)[C@@H](O)[C@H](O)[C@H]4O)cc3o2)cc1O [Diosmin] | 31.7 ± 0.92
39 | COc1ccc(-c2oc3c(CC=C(C)C)c(O[C@@H]4O[C@H](CO)[C@@H](O)[C@H](O)[C@H]4O)cc(O)c3c(=O)c2O[C@@H]2O[C@@H](C)[C@H](O)[C@@H](O[C@@H]3O[C@H](CO)[C@@H](O)[C@H](O)[C@H]3O)[C@H]2O)cc1 [Epimedin A1] | 26.7 ± 0.81
40 | COc1ccc(-c2oc3c(CC=C(C)C)c(O[C@@H]4O[C@H](CO)[C@@H](O)[C@H](O)[C@H]4O)cc(O)c3c(=O)c2O[C@@H]2O[C@@H](C)[C@H](O)[C@@H](O)[C@H]2O[C@@H]2OC[C@@H](O)[C@H](O)[C@H]2O)cc1 [Epimedin B] | 29.1 ± 2.01
41 | Cc1c(O)c(C)c2c(c1O)C(=O)C[C@@H](c1ccc(O)cc1)O2 [Farrerol] | 33.5 ± 0.73
42 | COc1ccc(/C=C/C(=O)c2c(O)cc(OC)cc2OC)cc1 [Flavokawain A] | 2.6 ± 1.17

Row | Compound | inhibition at 64 µg/mL [%]
43 | COc1cc2ccc(=O)oc2c(O)c1O [Fraxetin] | 50.3 ± 4.62
44 | O=c1c(-c2ccc(O)cc2)coc2cc(O)cc(O)c12 [Genistein] | 33.5 ± 0.65
45 | O=c1c(-c2ccc(O)cc2)coc2cc(O[C@@H]3O[C@H](CO)[C@@H](O)[C@H](O)[C@H]3O)cc(O)c12 [Genistin] | 22.1 ± 0.63
46 | COc1cc(O)c2c(=O)cc(-c3ccc(O)cc3)oc2c1 [Genkwanin] | 13.7 ± 0.58
47 | COc1cc2c(=O)c(-c3ccc(O)cc3)coc2cc1O[C@@H]1O[C@H](CO)[C@@H](O)[C@H](O)[C@H]1O [Glycitin] | 18.5 ± 1.26
48 | O=Cc1ccc(O[C@@H]2O[C@H](CO)[C@@H](O)[C@@H](O)[C@H]2O)cc1 [Helicid] | 13.9 ± 3.22
49 | Oc1cc2c(cc1O)[C@@H]1c3ccc(O)c(O)c3OC[C@]1(O)C2 [Hematoxylin] | 23.9 ± 2.69
50 | O=C1C([C@@H]2O[C@H](CO)[C@@H](O)[C@H](O)[C@H]2O)=C(O)/C(=C(O)/C=C/c2ccc(O)cc2)C(=O)C1(O)[C@@H]1O[C@H](CO)[C@@H](O)[C@H](O)[C@H]1O (stereo partly shown) [Hydroxysafflor yellow A] | 52.4 ± 4.23
51 | COc1ccc(-c2oc3c(CC=C(C)C)c(O[C@@H]4O[C@H](CO)[C@@H](O)[C@H](O)[C@H]4O)cc(O)c3c(=O)c2O[C@@H]2O[C@@H](C)[C@H](O)[C@@H](O)[C@H]2O)cc1 [Icariin] | 34.6 ± 1.54
52 | COc1cc(-c2coc3cc(O[C@@H]4O[C@H](CO)[C@@H](O)[C@H](O)[C@H]4O)c(OC)c(O)c3c2=O)cc(O)c1OC [Iridin] | 14.2 ± 1.39
53 | O=c1c(-c2ccccc2)coc2ccccc12 [Isoflavone] | 20.1 ± 0.73
54 | O=c1cc(-c2ccc(O)c(O)c2)oc2cc(O)c([C@@H]3O[C@H](CO)[C@@H](O)[C@H](O)[C@H]3O)c(O)c12 [Isoorientin] | 50.2 ± 1.58
55 | COc1ccc(C(=O)O)cc1O [Isovanillic acid] | 13.7 ± 2.43
56 | O=c1c(O)c(-c2ccc(O)cc2)oc2cc(O)cc(O)c12 [Kaempferol] | 44 ± 2.75
57 | C[C@@H]1O[C@@H](OC[C@H]2O[C@@H](Oc3cc(O)c4c(=O)cc(-c5ccc(O)cc5)oc4c3)[C@H](O[C@@H]3O[C@@H](C)[C@H](O)[C@@H](O)[C@H]3O)[C@@H](O)[C@@H]2O)[C@H](O)[C@H](O)[C@H]1O [Ligustroflavone] | 26.6 ± 1.16
58 | O=C1C[C@@H](c2ccc(O[C@@H]3O[C@H](CO)[C@@H](O)[C@H](O)[C@H]3O)cc2)Oc2cc(O)ccc21 [Liquiritin] | 3.2 ± 0.97
59 | COC(=O)C1=CO[C@@H](O[C@@H]2O[C@H](CO)[C@@H](O)[C@H](O)[C@H]2O)[C@@H]2[C@@H](C)[C@@H](O)C[C@H]12 [Loganin] | 14.7 ± 3.56
60 | COc1ccc(CCC(=O)c2ccc(O)cc2)c(OC)c1 [Loureirin A] | 56.5 ± 2.47
61 | COc1cc(OC)c(CCC(=O)c2ccc(O)cc2)c(OC)c1 [Loureirin B] | 29.8 ± 2.24
